Values quoted from earlier work, collected in patent US20070093966A1, “Drug candidate selection by hydrogen exchange characterization of ligand-induced receptor conformation” (ExSAR CORPORATION, priority 2004, published 2007).

Test system: endogenous gene CAP in 3T3-L1 adipocytes
Settings: Camp et al.

Cc1c(C)c2c(c(C)c1O)CCC(C)(COc1ccc(CC3SC(=O)NC3=O)cc1)O2 (stereo not shown) [troglitazone]
agonist profile, induction of the endogenous gene CAP: full agonist
